In one test the target is T1, GPR3 (Homo sapiens, UniProt P46089).
T1 construct: expressed in transfected cells; host or cells: CHO cells
As to the kind of experiment: GPR3 antagonist functional cAMP assay (LANCE Ultra cAMP TR-FRET, CHO cells stably expressing GPR3). Type of test: cell-based. In outline:
(§1)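 Compounds, at 0.1% final DMSO, acted on the cells for 45 minutes at 37 °C in the presence of the phosphodiesterase inhibitor Ro 20-1724 (150 μM). After lysis and detection, plates were shaken 1 h at room temperature and emission at 665 nm was recorded. Normalized data gave IC50 values.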
A general note: Changes in cAMP serve as a functional read-out for many G protein-coupled receptors.

Another test addresses T2, GPR6 (Homo sapiens, UniProt P46095).
T2 construct: expressed in transfected cells; host or cells: CHO cells
Kind of test: GPR6 antagonist functional cAMP assay (LANCE Ultra cAMP TR-FRET, CHO cells stably expressing GPR6). Type of test: cell-based. In outline: as §1

Setting [1] is: CHO cells stably expressing GPR3, cAMP assay.
Setting [2] is: CHO cells stably expressing GPR6, cAMP assay.
Where [3] appears, read: CHO cells stably expressing GPR3, cAMP assay (Example 24).
The mark [4] stands for this setting: CHO cells stably expressing GPR6, cAMP assay (Example 24).
[5] abbreviates: procedure as described in Example 24.

The record followed here is US20260042755A1, “GPR6 INVERSE AGONISTS” (MapLight Therapeutics, Inc., priority 2022, published 2026).

Bounds are passed on as bounds.

T2 sequence (P46095 whole entry): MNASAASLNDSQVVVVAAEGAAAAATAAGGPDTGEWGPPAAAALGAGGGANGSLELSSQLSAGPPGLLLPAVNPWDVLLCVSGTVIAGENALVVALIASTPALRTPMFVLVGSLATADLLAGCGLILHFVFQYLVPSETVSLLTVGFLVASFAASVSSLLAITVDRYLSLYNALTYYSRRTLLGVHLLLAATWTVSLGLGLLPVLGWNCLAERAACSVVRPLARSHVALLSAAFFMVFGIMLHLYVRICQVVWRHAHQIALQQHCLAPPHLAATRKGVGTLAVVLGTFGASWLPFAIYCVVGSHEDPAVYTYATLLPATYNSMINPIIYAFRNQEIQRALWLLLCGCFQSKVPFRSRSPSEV
T1 sequence (P46089 whole entry, species assumed): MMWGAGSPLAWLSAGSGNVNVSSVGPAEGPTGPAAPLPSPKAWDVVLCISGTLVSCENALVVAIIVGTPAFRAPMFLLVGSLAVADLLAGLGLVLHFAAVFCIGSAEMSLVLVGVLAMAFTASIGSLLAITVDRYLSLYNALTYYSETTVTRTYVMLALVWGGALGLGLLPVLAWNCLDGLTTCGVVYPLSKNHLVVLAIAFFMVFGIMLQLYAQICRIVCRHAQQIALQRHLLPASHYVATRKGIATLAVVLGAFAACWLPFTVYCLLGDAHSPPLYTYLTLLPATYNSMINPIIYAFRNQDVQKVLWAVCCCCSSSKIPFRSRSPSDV

As usually defined, the IC50 is the concentration needed to halve the response being measured. With `Cn1cc(-c2nc3cnc([C@H](O)C(C)(C)O)cc3nc2N2CCN(Cc3ccc(F)cc3F)CC2)cn1` (single isomer, unassigned) [Compound 579], the half-maximal inhibitory concentration (IC50) was 0.1 to 1 µM against GPR3 (setting [1]) and below 0.1 µM against GPR6 (setting [2]).
For the molecule `CC(C)(O)[C@H](O)c1cc2nc(N3CCN(Cc4ccccc4F)CC3)c(-c3cnn(C(F)F)c3)nc2cn1` (single isomer, unassigned) [Compound 612], the IC50 is 1 to 30 µM against GPR3 (procedure of Example 24) and 0.1 to 1 µM against GPR6 (procedure of Example 24).
`COc1ccc(CN2CCN(c3nc4c(nc3-c3cnn(C)c3)CN(C(C)=O)CC4)CC2)cc1` [Compound 317, 1-(2-{4-[(4-methoxyphenyl)methyl]piperazin-1-yl}-3-(1-methyl-1H-pyrazol-4-yl)-5H,6H,7H,8H-pyrido[3,4-b]pyrazin-6-yl)ethan-1-one]: the IC50 against GPR3 (procedure of Example 24) and at GPR6 (procedure of Example 24) was 1 to 30 µM each time.
For `CC(=O)N1CCc2nc(N3CCC(Oc4ccc(F)cc4F)CC3)c(-c3cnn(C4CC4)c3)nc2C1` [Compound 164], the concentration for half-maximal inhibition (IC50) lay within 1 to 30 µM against GPR3 (setting [3]) and 0.1 to 1 µM at GPR6 (setting [4]).
As for `COc1cc(F)c(CN2CCN(c3nc4c(nc3-c3cnn(C)c3)CN(C(C)=O)CC4)CC2)cc1Cl` [Compound 361, 1-(2-{4-[(5-chloro-2-fluoro-4-methoxyphenyl)methyl]piperazin-1-yl}-3-(1-methyl-1H-pyrazol-4-yl)-5H,6H,7H,8H-pyrido[3,4-b]pyrazin-6-yl)ethan-1-one], the 50% inhibitory concentration (IC50) at GPR3 (procedure of Example 24) and on GPR6 (procedure of Example 24) was 1 to 30 µM throughout.
Regarding `CC(=O)N1CCc2nc(N3CCC([C@H](F)c4ccc(F)cc4F)CC3)c(-c3cnn(C)c3)nc2C1` (single isomer, unassigned) [Compound 658], the figures for the IC50 against GPR3 (procedure of Example 24) and against GPR6 (procedure of Example 24) were 0.1 to 1 µM and below 0.1 µM, respectively.
`C[C@@H]1CN(Cc2ccc(F)cc2F)CCN1c1nc2ccncc2nc1-c1cnn(C)c1` (single isomer, unassigned) [Compound 224]: the IC50 on GPR3 (setting [3]) and on GPR6 (setting [4]) was 1 to 30 µM each time.
On to `CC(=O)N1CCc2nc(N3CCC(Oc4ccc(F)cc4F)CC3)c(-c3cnn(C4CS(=O)(=O)C4)c3)nc2C1` [Compound 82, 3-(4-{6-acetyl-2-[4-(2,4-difluorophenoxy)piperidin-1-yl]-5H,6H,7H,8H-pyrido[3,4-b]pyrazin-3-yl}-1H-pyrazol-1-yl)-1λ^6-thietane-1,1-dione], for which the half-inhibitory concentration (IC50) at GPR3 (setting [3]) and against GPR6 (setting [4]) was 1 to 30 µM each time.
With `CC(=O)N1CCc2nc(N3CCC(Oc4ccc(F)cc4F)CC3)c(-c3cnsc3)nc2C1` [Compound 8, 1-{2-[4-(2,4-difluorophenoxy)piperidin-1-yl]-3-(1,2-thiazol-4-yl)-5H,6H,7H,8H-pyrido[3,4-b]pyrazin-6-yl}ethan-1-one], the IC50 on GPR3 (setting [5]) was 1 to 30 µM; against GPR6 (setting [5]), 0.1 to 1 µM.
With `CC(=O)N1CCc2nc(N3CCC(Oc4ccccc4F)CC3)c(-c3cnn(C)c3)nc2C1` [Compound 420, 1-{2-[4-(2-fluorophenoxy)piperidin-1-yl]-3-(1-methyl-1H-pyrazol-4-yl)-5H,6H,7H,8H-pyrido[3,4-b]pyrazin-6-yl}ethan-1-one], the IC50 at GPR3 (setting [3]) was in the range of 1 to 30 µM; against GPR6 (setting [4]) it was 0.1 to 1 µM.
Taken in the same sequence, the figures for `CC(=O)N1CCc2nc(N3CCC(C(=O)N4CCN(C)C(=O)C4)C3)c(-c3cnn(C)c3)nc2C1` (stereo not drawn) [Compound 390, 4-{1-[6-acetyl-3-(1-methyl-1H-pyrazol-4-yl)-5H,6H,7H,8H-pyrido[3,4-b]pyrazin-2-yl]pyrrolidine-3-carbonyl}-1-methylpiperazin-2-one] were 1 to 30 µM and 1 to 30 µM.
With `CCc1cncc(-c2nc3c(nc2N2CCC(Oc4ccc(F)cc4F)CC2)CCN(C(C)=O)C3)n1` [Compound 493, 1-{2-[4-(2,4-difluorophenoxy)piperidin-1-yl]-3-(6-ethylpyrazin-2-yl)-5H,6H,7H,8H-pyrido[3,4-b]pyrazin-6-yl}ethan-1-one], the IC50 against GPR3 (setting [1]) and against GPR6 (setting [2]) was 1 to 30 µM in each case.
`CC(C)(O)[C@@H](O)c1cc2nc(N3CCN(Cc4ccccc4F)CC3)c(-c3cnn(CF)c3)nc2cn1` (single isomer, unassigned) [Compound 647]: the 50% inhibitory concentration (IC50) is 1 to 30 µM on GPR3 (procedure of Example 24) and below 0.1 µM against GPR6 (procedure of Example 24).
`CC(C)(O)[C@@H](O)c1cc2nc(N3CCN(Cc4ccc(F)cc4F)CC3)c(-c3cnn(C(F)F)c3)nc2cn1` (single isomer, unassigned) [Compound 397]: the IC50 against GPR3 (setting [3]) is 1 to 30 µM; at GPR6 (setting [4]), below 0.1 µM.
Take `CC(C)(O)C(C)(O)c1cc2nc(-c3cnn(C(F)F)c3)c(N3CCN(Cc4ccc(F)cc4F)CC3)nc2cn1` (single isomer, unassigned) [Compound 662]: the IC50 against GPR3 (procedure of Example 24) is 1 to 30 µM; against GPR6 (procedure of Example 24), below 0.1 µM.
Take `CC(=O)N1CCc2nc(N3CCC(Oc4ccc(F)cc4F)CC3)c(C3CCC(O)CC3)nc2C1` (stereo not drawn) [Compound 374, 1-(2-(4-(2,4-difluorophenoxy)piperidin-1-yl)-3-(4-hydroxycyclohexyl)-7,8-dihydropyrido[3,4-b]pyrazin-6(5H)-yl)ethan-1-one]: the IC50 on GPR3 (procedure of Example 24) and against GPR6 (procedure of Example 24) was 1 to 30 µM each time.
Regarding `COC(=O)/C=C/c1cc2nc(N3CCC(Oc4ccc(F)cc4F)CC3)c(-c3cnn(C)c3)nc2cn1` [Compound 745, methyl 3-{2-[4-(2,4-difluorophenoxy)-1-piperidyl]-3-(1-methyl-4-pyrazolyl)-1,4,6-triaza-7-naphthyl}acrylate], the IC50 at GPR3 (procedure of Example 24) and against GPR6 (procedure of Example 24) was 1 to 30 µM in each case.
As for `O=c1cc2nc(-c3cnn(CF)c3)c(N3CCN(Cc4ccc(F)cc4F)CC3)nc2c[nH]1` [Compound 796, 3-{4-[(2,4-difluorophenyl)methyl]-1-piperazinyl}-2-[1-(fluoromethyl)-4-pyrazolyl]-1,4,6-triaza-7(6H)-naphthalenone], the IC50 lay within 1 to 30 µM against GPR3 (procedure of Example 24) and 0.1 to 1 µM at GPR6 (procedure of Example 24).
For `CC(=O)N1CCc2nc(N3CCC(Oc4ccc(F)cc4F)CC3)c(/C=C3/CCOC3)nc2C1` [Compound 494, 1-{2-[4-(2,4-difluorophenoxy)piperidin-1-yl]-3-{[(3Z)-oxolan-3-ylidene]methyl}-5H,6H,7H,8H-pyrido[3,4-b]pyrazin-6-yl}ethan-1-one], the IC50 was 1 to 30 µM on GPR3 (setting [1]) and 0.1 to 1 µM against GPR6 (setting [2]).
For `COc1cccc(-c2nc3c(nc2N2CCC(Oc4ccc(F)cc4F)CC2)CCN(C(C)=O)C3)n1` [Compound 86, 1-(2-(4-(2,4-difluorophenoxy)piperidin-1-yl)-3-(6-methoxypyridin-2-yl)-7,8-dihydropyrido[3,4-b]pyrazin-6(5H)-yl)ethan-1-one], the IC50 against GPR3 (setting [3]) lay within 1 to 30 µM; at GPR6 (setting [4]), 0.1 to 1 µM.
As to `Cn1cc(-c2nc3cnc(CC(C)(C)O)cc3nc2N2CCC(Oc3ccc(F)cc3F)CC2)cn1` [Compound 461, 1-(2-(4-(2,4-difluorophenoxy)piperidin-1-yl)-3-(1-methyl-1H-pyrazol-4-yl)pyrido[3,4-b]pyrazin-7-yl)-2-methylpropan-2-ol], the IC50 fell in the range of 1 to 30 µM against GPR3 (setting [3]) and 0.1 to 1 µM against GPR6 (setting [4]).
The like results for `CC(=O)N1CCc2nc(N3CCC(Oc4ccc(F)cc4F)CC3)c(-c3cnn(C4CN(C)C4)c3)nc2C1` [Compound 212, 1-{2-[4-(2,4-difluorophenoxy)piperidin-1-yl]-3-[1-(1-methylazetidin-3-yl)-1H-pyrazol-4-yl]-5H,6H,7H,8H-pyrido[3,4-b]pyrazin-6-yl}ethan-1-one] were, in that order, 1 to 30 µM and 1 to 30 µM.
Turning to `Cn1cc(-c2nc3cc(C(O)C(C)(C)O)ncc3nc2N2CCC(Oc3ccc(F)cc3F)CC2)cn1` (single isomer, unassigned) [Compound 561], the IC50 is 0.1 to 1 µM against GPR3 (setting [1]) and below 0.1 µM against GPR6 (setting [2]).
With `Cn1cc(-c2nc3cnc([C@@H](O)C(C)(C)F)cc3nc2N2CCC(Oc3ccc(F)cc3F)CC2)cn1` (single isomer, unassigned) [Compound 744], the IC50 on GPR3 (procedure of Example 24) was 1 to 30 µM; against GPR6 (procedure of Example 24) it was 0.1 to 1 µM.
Take `CCn1cc(-c2nc3cnc(C)cc3nc2N2CCC(Oc3ccc(F)cc3F)CC2)cn1` [Compound 313, 4-(2,4-difluorophenoxy)-1-[3-(1-ethyl-1H-pyrazol-4-yl)-7-methylpyrido[3,4-b]pyrazin-2-yl]piperidine]: the results for the IC50 on GPR3 (procedure of Example 24) and on GPR6 (procedure of Example 24) were 1 to 30 µM and 0.1 to 1 µM, respectively.
Regarding `O=C1CC(N2CCc3nc(N4CCC(Oc5ccc(F)cc5F)CC4)c(-c4cn[nH]c4)nc3C2)CN1` (stereo not drawn) [Compound 229, 4-{2-[4-(2,4-difluorophenoxy)piperidin-1-yl]-3-(1H-pyrazol-4-yl)-5H,6H,7H,8H-pyrido[3,4-b]pyrazin-6-yl}pyrrolidin-2-one], the IC50 at GPR3 (setting [3]) and at GPR6 (setting [4]) was 1 to 30 µM each time.
On to `CC(=O)N1CCc2nc(N3CCC(Oc4ccc(F)cc4F)CC3)c(C3=CCOCC3)nc2C1` [Compound 198, 1-{2-[4-(2,4-difluorophenoxy)piperidin-1-yl]-3-(3,6-dihydro-2H-pyran-4-yl)-5H,6H,7H,8H-pyrido[3,4-b]pyrazin-6-yl}ethan-1-one], for which the IC50 on GPR3 (setting [3]) lay within 1 to 30 µM; at GPR6 (setting [4]), 0.1 to 1 µM.
Consider `Cn1cc(-c2nc3cnc(C(=O)O)cc3nc2N2CCC(Oc3ccc(F)cc3F)CC2)cn1` [Compound 314, 2-[4-(2,4-difluorophenoxy)piperidin-1-yl]-3-(1-methyl-1H-pyrazol-4-yl)pyrido[3,4-b]pyrazine-7-carboxylic acid], for which the IC50 on GPR3 (procedure of Example 24) and against GPR6 (procedure of Example 24) was 1 to 30 µM each time.
With `CC(=O)N1CCc2nc(C3CCC(Oc4ccc(F)cc4F)CC3)c(-c3ncco3)nc2C1` (stereo not drawn) [Compound 302, 1-{2-[4-(2,4-difluorophenoxy)cyclohexyl]-3-(1,3-oxazol-2-yl)-5H,6H,7H,8H-pyrido[3,4-b]pyrazin-6-yl}ethan-1-one], the IC50 at GPR3 (procedure of Example 24) and on GPR6 (procedure of Example 24) was 1 to 30 µM each time.
On to `COC[C@@](C)(O)c1cc2nc(-c3cnn(C)c3)c(N3CCC(Oc4ccc(F)cc4F)CC3)nc2cn1` (single isomer, unassigned) [Compound 688], for which the IC50 on GPR3 (procedure of Example 24) and at GPR6 (procedure of Example 24) was 0.1 to 1 µM each time.
